# Source: ChEMBL document CHEMBL4382208, “Design, synthesis and biological evaluation of novel 2-sulfonylindoles as potential anti-inflammatory therapeutic agents for treatment of acute lung injury” (Eur J Med Chem, 2018)
# The source made the active and inactive calls. No cut-off for these calls is given here.
# Test system: Peritoneal macrophage
# Test: Cytotoxicity against mouse primary peritoneal macrophages assessed as reduction in cell viability at 10 uM after 24 hrs by MTT assay
# Assay type: cell-based
row,SMILES,Activity
1,Cc1ccc(S(=O)(=O)c2cc3c(Cl)cccc3[nH]2)cc1,Non-Toxic
2,Cc1c(S(=O)(=O)c2ccc(C(F)(F)F)cc2)n(C)c2ccccc12,Non-Toxic
3,COc1ccc(S(=O)(=O)c2[nH]c3cc(C)ccc3c2I)cc1,Non-Toxic
4,Cn1c(S(=O)(=O)c2ccc(C(C)(C)C)cc2)cc2ccccc21,Non-Toxic
5,Cn1c(S(=O)(=O)c2ccc(F)cc2)cc2ccccc21,Non-Toxic
6,Cc1ccc(S(=O)(=O)c2cc3ccc(C)cc3n2C)cc1,Non-Toxic
7,Cc1ccc(S(=O)(=O)c2cc3c(Cl)cccc3n2C)cc1,Non-Toxic
8,Cc1ccc(S(=O)(=O)c2cc3cc(Br)ccc3n2C)cc1,Non-Toxic
9,COc1ccc2c(c1)cc(S(=O)(=O)c1ccc(C(C)(C)C)cc1)n2C,Non-Toxic
10,Cc1ccc(S(=O)(=O)c2c(C)c3ccccc3n2C)cc1,Non-Toxic
11,Cn1c(S(C)(=O)=O)cc2ccccc21,Non-Toxic
12,CCCCn1c(S(=O)(=O)c2ccc(C)cc2)cc2ccccc21,Non-Toxic
13,COc1ccc2c(c1)cc(S(=O)(=O)c1ccc(C)cc1)n2C,Non-Toxic
14,Cc1ccc(S(=O)(=O)c2cc3cc([N+](=O)[O-])ccc3n2C)cc1,Non-Toxic
15,Cn1c(S(=O)(=O)c2cccs2)cc2ccccc21,Non-Toxic
16,Cc1ccccc1S(=O)(=O)c1cc2ccccc2n1C,Non-Toxic

# Test system: Mus musculus
# Test: Antiinflammatory activity in C57BL/6 mouse assessed as inhibition of LPS-induced IL-6 mRNA expression in lungs at 10 to 20 mg/kg, ip by RT-qPCR analysis
# Assay type: functional, organism-based
row,SMILES,inhibition
1,Cn1c(S(=O)(=O)c2ccc(C(C)(C)C)cc2)cc2ccccc21,Active

# Test system: Mus musculus
# Test: Antiinflammatory activity in C57BL/6 mouse assessed as inhibition of LPS-induced destruction of alveolar structure at 10 to 20 mg/kg, ip pretreated for 30 mins followed by LPS addition measured after 6 hrs by hematoxylin and eosin staining based microscopic analysis
# Assay type: functional, organism-based
row,SMILES,inhibition
1,Cn1c(S(=O)(=O)c2ccc(C(C)(C)C)cc2)cc2ccccc21,Active

# Test system: Mus musculus
# Test: Antiinflammatory activity in C57BL/6 mouse assessed as inhibition of LPS-induced TNF-alpha level in bronchoalveolar lavage fluid at 10 to 20 mg/kg, ip pretreated for 30 mins followed by LPS addition measured after 6 hrs
# Assay type: functional, organism-based
row,SMILES,inhibition
1,Cn1c(S(=O)(=O)c2ccc(C(C)(C)C)cc2)cc2ccccc21,Active

# Test system: Peritoneal macrophage
# Test: Antiinflammatory activity in mouse primary peritoneal macrophages assessed as inhibition of LPS-induced TNF-alpha production at 10 uM preincubated for 30 mins followed by LPS addition and measured after 24 hrs by ELISA relative to control
# Assay type: functional
SMILES,inhibition,inhibition at 10 µM [%]
Cc1ccc(S(=O)(=O)c2cc3c(Cl)cccc3[nH]2)cc1,Active,
Cc1c(S(=O)(=O)c2ccc(C(F)(F)F)cc2)n(C)c2ccccc12,Active,
COc1ccc(S(=O)(=O)c2[nH]c3cc(C)ccc3c2I)cc1,Active,
Cn1c(S(=O)(=O)c2ccc(C(C)(C)C)cc2)cc2ccccc21,,82
Cn1c(S(=O)(=O)c2ccc(F)cc2)cc2ccccc21,Active,
Cc1ccc(S(=O)(=O)c2cc3ccc(C)cc3n2C)cc1,Active,
Cc1ccc(S(=O)(=O)c2cc3c(Cl)cccc3n2C)cc1,Active,
Cc1ccc(S(=O)(=O)c2cc3cc(Br)ccc3n2C)cc1,Active,
COc1ccc2c(c1)cc(S(=O)(=O)c1ccc(C(C)(C)C)cc1)n2C,Active,
Cc1ccc(S(=O)(=O)c2c(C)c3ccccc3n2C)cc1,Active,
Cn1c(S(C)(=O)=O)cc2ccccc21,Active,
CCCCn1c(S(=O)(=O)c2ccc(C)cc2)cc2ccccc21,Active,
COc1ccc2c(c1)cc(S(=O)(=O)c1ccc(C)cc1)n2C,Active,
Cc1ccc(S(=O)(=O)c2cc3cc([N+](=O)[O-])ccc3n2C)cc1,Active,
Cn1c(S(=O)(=O)c2cccs2)cc2ccccc21,Active,
Cc1ccccc1S(=O)(=O)c1cc2ccccc2n1C,Active,

# Test system: Peritoneal macrophage
# Test: Antiinflammatory activity in mouse primary peritoneal macrophages assessed as inhibition of LPS-induced IL-6 production preincubated for 30 mins followed by LPS addition and measured after 24 hrs by ELISA
# Assay type: functional, cell-based
IC50 [µM],SMILES,inhibition
1.1,Cn1c(S(=O)(=O)c2ccc(C(C)(C)C)cc2)cc2ccccc21,Dose-dependent effect

# Test system: Mus musculus
# Test: Antiinflammatory activity in C57BL/6 mouse assessed as inhibition of LPS-induced inflammatory cell infiltration at 10 to 20 mg/kg, ip pretreated for 30 mins followed by LPS addition measured after 6 hrs by hematoxylin and eosin staining based microscopic analysis
# Assay type: functional, organism-based
row,SMILES,inhibition
1,Cn1c(S(=O)(=O)c2ccc(C(C)(C)C)cc2)cc2ccccc21,Active

# Test system: Mus musculus
# Test: Antiinflammatory activity in C57BL/6 mouse assessed as reduction in lung wet/dry ratio at 10 to 20 mg/kg, ip pretreated for 30 mins followed by LPS addition measured after 6 hrs
# Assay type: functional, organism-based
row,SMILES,Activity
1,Cn1c(S(=O)(=O)c2ccc(C(C)(C)C)cc2)cc2ccccc21,Active

# Test system: Mus musculus
# Test: Antiinflammatory activity in C57BL/6 mouse assessed as inhibition of LPS-induced IL-1beta mRNA expression in lungs at 10 to 20 mg/kg, ip by RT-qPCR analysis
# Assay type: functional, organism-based
row,SMILES,inhibition
1,Cn1c(S(=O)(=O)c2ccc(C(C)(C)C)cc2)cc2ccccc21,Active

# Test system: Peritoneal macrophage
# Test: Antiinflammatory activity in mouse primary peritoneal macrophages assessed as inhibition of LPS-induced VCAM-1 mRNA expression at 5 to 10 uM by RT-qPCR analysis
# Assay type: functional, cell-based
row,SMILES,inhibition
1,Cn1c(S(=O)(=O)c2ccc(C(C)(C)C)cc2)cc2ccccc21,Active

# Test system: Mus musculus
# Test: Antiinflammatory activity in C57BL/6 mouse assessed as inhibition of LPS-induced IL-6 level in bronchoalveolar lavage fluid at 10 to 20 mg/kg, ip pretreated for 30 mins followed by LPS addition measured after 6 hrs
# Assay type: functional, organism-based
row,SMILES,inhibition
1,Cn1c(S(=O)(=O)c2ccc(C(C)(C)C)cc2)cc2ccccc21,Active

# Test system: Peritoneal macrophage
# Test: Antiinflammatory activity in mouse primary peritoneal macrophages assessed as inhibition of LPS-induced TNF-alpha production preincubated for 30 mins followed by LPS addition and measured after 24 hrs by ELISA
# Assay type: functional, cell-based
IC50 [µM],SMILES,inhibition
3.08,Cn1c(S(=O)(=O)c2ccc(C(C)(C)C)cc2)cc2ccccc21,Dose-dependent effect

# Test system: Mus musculus
# Test: Antiinflammatory activity in C57BL/6 mouse assessed as inhibition of LPS-induced lung edema at 10 to 20 mg/kg, ip pretreated for 30 mins followed by LPS addition measured after 6 hrs by hematoxylin and eosin staining based microscopic analysis
# Assay type: functional, organism-based
row,SMILES,inhibition
1,Cn1c(S(=O)(=O)c2ccc(C(C)(C)C)cc2)cc2ccccc21,Active

# Test system: Mus musculus
# Test: Antiinflammatory activity in C57BL/6 mouse assessed as inhibition of LPS-induced VCAM-1 mRNA expression in lungs at 10 to 20 mg/kg, ip by RT-qPCR analysis
# Assay type: functional, organism-based
row,SMILES,inhibition
1,Cn1c(S(=O)(=O)c2ccc(C(C)(C)C)cc2)cc2ccccc21,Active

# Test system: Mus musculus
# Test: Antiinflammatory activity in C57BL/6 mouse assessed as inhibition of LPS-induced total protein level in bronchoalveolar lavage fluid at 10 to 20 mg/kg, ip pretreated for 30 mins followed by LPS addition measured after 6 hrs
# Assay type: functional, organism-based
row,SMILES,inhibition
1,Cn1c(S(=O)(=O)c2ccc(C(C)(C)C)cc2)cc2ccccc21,Active

# Test system: Peritoneal macrophage
# Test: Antiinflammatory activity in mouse primary peritoneal macrophages assessed as inhibition of LPS-induced IL-6 mRNA expression at 5 to 10 uM by RT-qPCR analysis
# Assay type: functional, cell-based
row,SMILES,inhibition
1,Cn1c(S(=O)(=O)c2ccc(C(C)(C)C)cc2)cc2ccccc21,Active

# Test system: Mus musculus
# Test: Antiinflammatory activity in C57BL/6 mouse assessed as inhibition of LPS-induced total number of cells in bronchoalveolar lavage fluid at 10 to 20 mg/kg, ip pretreated for 30 mins followed by LPS addition measured after 6 hrs by Giemsa staining-based assay
# Assay type: functional, organism-based
row,SMILES,inhibition
1,Cn1c(S(=O)(=O)c2ccc(C(C)(C)C)cc2)cc2ccccc21,Active

# Test system: Mus musculus
# Test: Antiinflammatory activity in C57BL/6 mouse assessed as inhibition of LPS-induced macrophage filtration in lung by measuring CD68 protein expression at 10 to 20 mg/kg, ip pretreated for 30 mins followed by LPS addition measured after 6 hrs by immunohistochemistry
# Assay type: functional, organism-based
row,SMILES,inhibition
1,Cn1c(S(=O)(=O)c2ccc(C(C)(C)C)cc2)cc2ccccc21,Active

# Test system: Peritoneal macrophage
# Test: Antiinflammatory activity in mouse primary peritoneal macrophages assessed as inhibition of LPS-induced IL-6 production at 10 uM preincubated for 30 mins followed by LPS addition and measured after 24 hrs by ELISA relative to control
# Assay type: functional
SMILES,inhibition,inhibition at 10 µM [%]
Cc1ccc(S(=O)(=O)c2cc3c(Cl)cccc3[nH]2)cc1,Active,
Cc1c(S(=O)(=O)c2ccc(C(F)(F)F)cc2)n(C)c2ccccc12,Active,
COc1ccc(S(=O)(=O)c2[nH]c3cc(C)ccc3c2I)cc1,Active,
Cn1c(S(=O)(=O)c2ccc(C(C)(C)C)cc2)cc2ccccc21,,88
Cn1c(S(=O)(=O)c2ccc(F)cc2)cc2ccccc21,Active,
Cc1ccc(S(=O)(=O)c2cc3ccc(C)cc3n2C)cc1,Active,
Cc1ccc(S(=O)(=O)c2cc3c(Cl)cccc3n2C)cc1,Active,
Cc1ccc(S(=O)(=O)c2cc3cc(Br)ccc3n2C)cc1,Active,
COc1ccc2c(c1)cc(S(=O)(=O)c1ccc(C(C)(C)C)cc1)n2C,Active,
Cc1ccc(S(=O)(=O)c2c(C)c3ccccc3n2C)cc1,Active,
Cn1c(S(C)(=O)=O)cc2ccccc21,Active,
CCCCn1c(S(=O)(=O)c2ccc(C)cc2)cc2ccccc21,Active,
COc1ccc2c(c1)cc(S(=O)(=O)c1ccc(C)cc1)n2C,Active,
Cc1ccc(S(=O)(=O)c2cc3cc([N+](=O)[O-])ccc3n2C)cc1,Active,
Cn1c(S(=O)(=O)c2cccs2)cc2ccccc21,Active,
Cc1ccccc1S(=O)(=O)c1cc2ccccc2n1C,Active,

# Test system: Mus musculus
# Test: Antiinflammatory activity in C57BL/6 mouse assessed as inhibition of LPS-induced neutrophil filtration in lung by measuring myeloperoxidase activity at 10 to 20 mg/kg, ip pretreated for 30 mins followed by LPS addition measured after 6 hrs by Giemsa staining-based assay
# Assay type: functional, organism-based
row,SMILES,inhibition
1,Cn1c(S(=O)(=O)c2ccc(C(C)(C)C)cc2)cc2ccccc21,Active

# Test system: Peritoneal macrophage
# Test: Antiinflammatory activity in mouse primary peritoneal macrophages assessed as inhibition of LPS-induced IL-1beta mRNA expression at 5 to 10 uM by RT-qPCR analysis
# Assay type: functional, cell-based
row,SMILES,inhibition
1,Cn1c(S(=O)(=O)c2ccc(C(C)(C)C)cc2)cc2ccccc21,Active

# Test system: Mus musculus
# Test: Antiinflammatory activity in C57BL/6 mouse assessed as inhibition of LPS-induced alveolar hemorrhage at 10 to 20 mg/kg, ip pretreated for 30 mins followed by LPS addition measured after 6 hrs by hematoxylin and eosin staining based microscopic analysis
# Assay type: functional, organism-based
row,SMILES,inhibition
1,Cn1c(S(=O)(=O)c2ccc(C(C)(C)C)cc2)cc2ccccc21,Active
